In ChEMBL document CHEMBL4130587, “Chemical Compounds as Inhibitors of Kinase Activity for the Treatment of Cancer and COPD” (ACS Med Chem Lett, 2017):

Key:
[1] = biological target: T1, Phosphatidylinositol 4,5-bisphosphate 3-kinase catalytic subunit delta isoform (Homo sapiens, UniProt O00329); assay: Inhibition of GST-tagged PI3Kdelta […] (unknown origin) using PIP2 as subtrate after 1 hr in presence of biotin-labeled PIP3 by TR-FRET assay
T1 sequence (O00329 whole entry): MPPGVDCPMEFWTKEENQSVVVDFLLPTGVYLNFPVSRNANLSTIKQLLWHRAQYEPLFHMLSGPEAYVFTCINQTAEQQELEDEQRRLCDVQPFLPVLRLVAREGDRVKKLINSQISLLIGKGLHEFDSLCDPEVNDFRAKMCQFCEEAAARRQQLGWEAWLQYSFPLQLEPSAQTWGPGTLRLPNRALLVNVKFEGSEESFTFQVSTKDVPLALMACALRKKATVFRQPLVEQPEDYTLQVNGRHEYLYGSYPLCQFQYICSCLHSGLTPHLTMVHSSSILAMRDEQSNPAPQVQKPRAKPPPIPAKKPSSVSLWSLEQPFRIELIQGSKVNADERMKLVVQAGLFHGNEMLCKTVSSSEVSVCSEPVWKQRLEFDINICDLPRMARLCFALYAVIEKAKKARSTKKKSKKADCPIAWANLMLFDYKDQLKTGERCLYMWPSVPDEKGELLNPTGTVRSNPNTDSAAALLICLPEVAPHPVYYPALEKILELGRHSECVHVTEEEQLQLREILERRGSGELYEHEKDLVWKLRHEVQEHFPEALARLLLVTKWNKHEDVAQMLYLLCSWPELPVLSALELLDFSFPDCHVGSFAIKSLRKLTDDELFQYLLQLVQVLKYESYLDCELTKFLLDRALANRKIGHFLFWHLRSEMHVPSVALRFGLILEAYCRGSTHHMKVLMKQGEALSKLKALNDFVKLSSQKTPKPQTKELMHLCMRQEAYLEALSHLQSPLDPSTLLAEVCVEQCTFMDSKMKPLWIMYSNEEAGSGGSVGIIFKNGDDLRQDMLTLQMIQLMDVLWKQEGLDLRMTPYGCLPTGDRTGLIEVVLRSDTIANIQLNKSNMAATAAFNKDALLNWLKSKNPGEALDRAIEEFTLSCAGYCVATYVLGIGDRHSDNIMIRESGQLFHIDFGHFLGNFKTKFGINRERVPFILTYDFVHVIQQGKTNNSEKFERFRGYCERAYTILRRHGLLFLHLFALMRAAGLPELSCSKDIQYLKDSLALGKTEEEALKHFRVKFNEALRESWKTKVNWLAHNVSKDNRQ

[2] = biological target: Phosphatidylinositol 4,5-bisphosphate 3-kinase catalytic subunit gamma isoform (Homo sapiens, UniProt P48736); assay: Inhibition of GST-tagged PI3Kgamma […] (unknown origin) using PIP2 as subtrate after 1 hr in presence of biotin-labeled PIP3 by TR-FRET assay
[3] = biological target: Phosphatidylinositol 4,5-bisphosphate 3-kinase catalytic subunit beta isoform (Homo sapiens, UniProt P42338); assay: Inhibition of GST-tagged PI3Kbeta […] (unknown origin) using PIP2 as subtrate after 1 hr in presence of biotin-labeled PIP3 by TR-FRET assay
[4] = biological target: Phosphatidylinositol 4,5-bisphosphate 3-kinase catalytic subunit alpha isoform (Homo sapiens, UniProt P42336); assay: Inhibition of GST-tagged PI3Kalpha […] (unknown origin) using PIP2 as subtrate after 1 hr in presence of biotin-labeled PIP3 by TR-FRET assay

Measured: IC50

Chain of Phosphatidylinositol 4,5-bisphosphate 3-kinase catalytic subunit gamma isoform (P48736 whole entry, canonical isoform): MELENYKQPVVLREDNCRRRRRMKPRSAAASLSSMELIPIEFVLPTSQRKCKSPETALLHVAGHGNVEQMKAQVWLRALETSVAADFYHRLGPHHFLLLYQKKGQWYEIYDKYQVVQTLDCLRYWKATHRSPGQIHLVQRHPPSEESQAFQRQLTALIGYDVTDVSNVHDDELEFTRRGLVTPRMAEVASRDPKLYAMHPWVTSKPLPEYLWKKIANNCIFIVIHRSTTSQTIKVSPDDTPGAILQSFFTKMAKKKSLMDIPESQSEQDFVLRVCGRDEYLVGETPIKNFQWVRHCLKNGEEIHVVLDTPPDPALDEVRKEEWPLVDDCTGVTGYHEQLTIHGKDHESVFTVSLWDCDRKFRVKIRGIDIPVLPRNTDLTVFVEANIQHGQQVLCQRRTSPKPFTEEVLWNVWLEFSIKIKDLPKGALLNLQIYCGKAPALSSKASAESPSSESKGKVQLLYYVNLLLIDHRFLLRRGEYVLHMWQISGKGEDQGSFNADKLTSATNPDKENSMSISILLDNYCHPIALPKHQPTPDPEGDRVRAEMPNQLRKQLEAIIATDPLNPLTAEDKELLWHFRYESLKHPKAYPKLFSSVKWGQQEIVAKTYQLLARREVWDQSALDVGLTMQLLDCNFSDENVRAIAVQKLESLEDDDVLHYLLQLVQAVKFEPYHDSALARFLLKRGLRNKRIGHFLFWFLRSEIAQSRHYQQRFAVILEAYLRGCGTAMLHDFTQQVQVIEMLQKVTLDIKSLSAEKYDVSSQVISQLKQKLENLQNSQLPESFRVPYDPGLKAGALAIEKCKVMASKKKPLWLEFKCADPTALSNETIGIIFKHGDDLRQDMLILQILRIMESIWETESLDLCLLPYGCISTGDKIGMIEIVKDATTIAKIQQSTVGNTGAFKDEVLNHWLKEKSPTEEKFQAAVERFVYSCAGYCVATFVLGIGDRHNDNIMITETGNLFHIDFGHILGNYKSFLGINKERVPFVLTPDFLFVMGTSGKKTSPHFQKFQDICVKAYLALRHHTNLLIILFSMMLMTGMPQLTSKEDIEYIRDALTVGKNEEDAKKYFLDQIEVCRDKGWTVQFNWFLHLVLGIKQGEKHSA
Chain of Phosphatidylinositol 4,5-bisphosphate 3-kinase catalytic subunit alpha isoform (P42336 whole entry, canonical isoform): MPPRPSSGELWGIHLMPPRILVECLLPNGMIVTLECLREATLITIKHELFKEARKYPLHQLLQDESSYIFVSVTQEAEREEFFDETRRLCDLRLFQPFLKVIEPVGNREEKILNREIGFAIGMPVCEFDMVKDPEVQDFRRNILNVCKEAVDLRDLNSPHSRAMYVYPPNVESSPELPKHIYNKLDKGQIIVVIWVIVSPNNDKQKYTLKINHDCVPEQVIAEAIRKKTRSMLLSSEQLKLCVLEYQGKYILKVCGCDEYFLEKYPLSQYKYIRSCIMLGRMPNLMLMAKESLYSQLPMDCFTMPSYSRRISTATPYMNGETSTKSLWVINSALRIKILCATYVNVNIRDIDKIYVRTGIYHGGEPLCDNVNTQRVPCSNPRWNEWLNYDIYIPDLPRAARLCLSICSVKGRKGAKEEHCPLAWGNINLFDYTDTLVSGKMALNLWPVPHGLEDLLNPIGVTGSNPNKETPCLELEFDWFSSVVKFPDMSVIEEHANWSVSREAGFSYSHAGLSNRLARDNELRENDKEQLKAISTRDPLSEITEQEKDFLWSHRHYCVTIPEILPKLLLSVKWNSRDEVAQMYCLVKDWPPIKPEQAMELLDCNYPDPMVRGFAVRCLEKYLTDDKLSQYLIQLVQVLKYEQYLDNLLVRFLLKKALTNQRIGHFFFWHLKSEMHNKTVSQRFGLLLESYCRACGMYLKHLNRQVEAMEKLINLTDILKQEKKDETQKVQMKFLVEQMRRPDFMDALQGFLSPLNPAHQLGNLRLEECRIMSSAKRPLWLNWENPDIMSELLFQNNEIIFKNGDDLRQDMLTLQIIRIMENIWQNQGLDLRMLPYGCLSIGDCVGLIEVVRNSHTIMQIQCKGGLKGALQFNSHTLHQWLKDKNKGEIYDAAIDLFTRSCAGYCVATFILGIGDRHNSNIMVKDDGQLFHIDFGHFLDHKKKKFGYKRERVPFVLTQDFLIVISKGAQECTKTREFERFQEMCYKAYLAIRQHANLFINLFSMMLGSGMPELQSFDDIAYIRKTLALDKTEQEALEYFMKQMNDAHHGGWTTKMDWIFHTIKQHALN
Chain of Phosphatidylinositol 4,5-bisphosphate 3-kinase catalytic subunit beta isoform (P42338 whole entry, canonical isoform): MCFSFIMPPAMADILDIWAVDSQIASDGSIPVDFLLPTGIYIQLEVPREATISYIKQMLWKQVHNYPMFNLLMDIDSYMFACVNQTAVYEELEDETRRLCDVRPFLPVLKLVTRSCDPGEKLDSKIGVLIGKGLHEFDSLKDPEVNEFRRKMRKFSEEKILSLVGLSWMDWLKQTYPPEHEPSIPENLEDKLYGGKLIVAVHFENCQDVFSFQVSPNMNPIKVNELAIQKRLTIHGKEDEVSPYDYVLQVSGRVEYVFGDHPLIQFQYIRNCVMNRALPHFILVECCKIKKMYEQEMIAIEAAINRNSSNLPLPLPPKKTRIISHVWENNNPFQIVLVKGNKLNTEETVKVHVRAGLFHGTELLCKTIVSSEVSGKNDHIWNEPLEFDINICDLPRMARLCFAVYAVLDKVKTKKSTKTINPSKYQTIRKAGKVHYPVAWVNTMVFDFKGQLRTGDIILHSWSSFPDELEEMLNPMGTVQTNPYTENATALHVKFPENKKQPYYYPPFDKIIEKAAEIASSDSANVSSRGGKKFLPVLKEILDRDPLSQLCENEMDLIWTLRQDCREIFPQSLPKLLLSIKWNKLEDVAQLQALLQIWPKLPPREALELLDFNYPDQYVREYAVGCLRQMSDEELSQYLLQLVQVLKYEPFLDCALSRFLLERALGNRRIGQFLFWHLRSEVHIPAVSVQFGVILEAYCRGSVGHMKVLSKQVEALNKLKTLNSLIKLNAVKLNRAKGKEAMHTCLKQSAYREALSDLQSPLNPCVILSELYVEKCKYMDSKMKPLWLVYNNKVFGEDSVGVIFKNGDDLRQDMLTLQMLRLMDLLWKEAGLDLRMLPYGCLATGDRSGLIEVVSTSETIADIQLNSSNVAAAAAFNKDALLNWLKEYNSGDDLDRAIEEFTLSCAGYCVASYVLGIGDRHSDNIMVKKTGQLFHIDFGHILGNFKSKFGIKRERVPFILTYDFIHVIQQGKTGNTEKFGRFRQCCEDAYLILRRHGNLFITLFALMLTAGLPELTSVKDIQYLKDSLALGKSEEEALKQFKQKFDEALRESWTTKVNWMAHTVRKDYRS

COc1ncc(N2CCOCC2)cc1S(=O)(=O)Nc1ccnc(-c2ccc(CN3CCN(C4COC4)CC3)cc2)c1
≤ 10 µM: [1] | [2] | [3] | [4]

COc1ncc(N2CCOCC2)cc1S(=O)(=O)Nc1ccnc(-c2ccc(CN3CCCC3)c(F)c2)c1
≤ 10 µM: [1] | [2] | [3] | [4]

COc1ncc(N2CCOCC2)cc1S(=O)(=O)Nc1ccnc(-c2ccc(CN3CCN(C(C)C)CC3)c(F)c2F)c1
≤ 10 µM: [1] | [2] | [3] | [4]

COc1ncc(N2CCOCC2)cc1S(=O)(=O)Nc1ccnc(-c2ccc(CN3CCN(C4COC4)CC3)cc2F)c1
≤ 10 µM: [1] | [2] | [3] | [4]

COc1ncc(N2CCOCC2)cc1S(=O)(=O)Nc1ccnc(-c2ccc(CN3CCCC3)cc2F)c1
≤ 10 µM: [1] | [2] | [3] | [4]

COc1ncc(N2CCOCC2)cc1S(=O)(=O)Nc1ccnc(-c2cc(F)c(CN3CCN(C(C)C)CC3)c(F)c2)c1
≤ 10 µM: [1] | [2] | [3] | [4]
